# Source: patent publication US8420675B2, “Aminotetrahydroindazoloacetic acids” (Hoffmann-La Roche Inc., priority 2008, dated 2013)
# pIC50: −log10 of the molar value.
# Target: T1, human CRTH2 (Homo sapiens, UniProt Q9Y5Y4)
# T1 construct: expressed in transfected cells
# T1 sequence (Q9Y5Y4 1-395): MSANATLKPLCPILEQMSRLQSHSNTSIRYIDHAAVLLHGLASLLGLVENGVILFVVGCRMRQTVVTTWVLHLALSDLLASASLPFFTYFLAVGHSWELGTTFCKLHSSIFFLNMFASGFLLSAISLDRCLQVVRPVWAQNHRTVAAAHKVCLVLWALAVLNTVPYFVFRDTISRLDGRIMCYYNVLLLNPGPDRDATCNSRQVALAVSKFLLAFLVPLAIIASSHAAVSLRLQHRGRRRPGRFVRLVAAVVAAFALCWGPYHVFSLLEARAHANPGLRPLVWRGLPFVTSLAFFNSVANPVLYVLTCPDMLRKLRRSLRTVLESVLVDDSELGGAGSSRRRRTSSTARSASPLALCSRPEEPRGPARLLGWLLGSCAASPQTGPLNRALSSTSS
# Experiment: Human CRTH2 Receptor Binding Assay (whole cell, [3H]ramatroban competition)
# Conditions: CHO-K1 cells expressing human CRTH2 and G-alpha16; 20 nM [3H]ramatroban; 1 hour, room temperature
# Outline: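 CHO-K1 cells stably co-expressing human CRTH2 and G-alpha16, 1.5×10^5 per reaction, incubated 1 hour at room temperature with 20 nM [3H]ramatroban in PBS containing 10 mM MgCl2 and 0.06% BSA. Non-specific binding defined with 10 μM 15(R)-15-methyl PGD2. IC50 from 7 concentrations by 4-parameter logistic fit of specific binding inhibition.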
row,Compound,pIC50
1,"CN([C@@H]1CCCc2c1cnn2CC(=O)O)S(=O)(=O)c1cc(F)c(Oc2ccc(F)cc2)cc1Cl [Example 9-29a, ((R)-4-{[2-Chloro-5-fluoro-4-(4-fluoro-phenoxy)-benzenesulfonyl]-methyl-amino}-4,5,6,7-tetrahydro-indazol-1-yl)-acetic acid]",6.82
2,"Cc1cc(S(=O)(=O)N(C)[C@@H]2CCCc3c2cnn3CC(=O)O)ccc1Oc1ccc(F)cc1 [Example 9-35a, ((R)-4-{[4-(4-Fluoro-phenoxy)-3-methyl-benzenesulfonyl]-methyl-amino}-4,5,6,7-tetrahydro-indazol-1-yl)-acetic acid]",7.77
3,"CN([C@@H]1CCCc2c1cnn2CC(=O)O)S(=O)(=O)c1ccc(Oc2ccc(F)cc2Cl)c(Cl)c1 [Example 9-16a, ((R)-4-{[3-Chloro-4-(2-chloro-4-fluoro-phenoxy)-benzenesulfonyl]-methyl-amino}-4,5,6,7-tetrahydro-indazol-1-yl)-acetic acid]",8.10
4,"CN([C@@H]1CCCc2c1cnn2CC(=O)O)S(=O)(=O)c1ccc(Oc2ccc(C(C)(C)C)cc2)c(Cl)c1 [Example 9-7a, ((R)-4-{[4-(4-tert-Butyl-phenoxy)-3-chloro-benzenesulfonyl]-methyl-amino}-4,5,6,7-tetrahydro-indazol-1-yl)-acetic acid]",7.90
5,"Cc1ccc(Oc2ccc(S(=O)(=O)N(C)[C@@H]3CCCc4c3cnn4CC(=O)O)cc2Cl)c(C)c1 [Example 9-19a, ((R)-4-{[3-Chloro-4-(2,4-dimethyl-phenoxy)-benzenesulfonyl]-methyl-amino}-4,5,6,7-tetrahydro-indazol-1-yl)-acetic acid]",7.94
6,"CN([C@@H]1CCCc2c1cnn2CC(=O)O)S(=O)(=O)c1ccc(Oc2c(F)cccc2F)c(Cl)c1 [Example 9-33a, ((R)-4-{[3-Chloro-4-(2,6-difluoro-phenoxy)-benzenesulfonyl]-methyl-amino}-4,5,6,7-tetrahydro-indazol-1-yl)-acetic acid]",7.97
7,"CN([C@@H]1CCCc2c1cnn2CC(=O)O)S(=O)(=O)c1ccc(Oc2ccccc2Cl)cc1Cl [Example 9-10a, ((R)-4-{[2-Chloro-4-(2-chloro-phenoxy)-benzenesulfonyl]-methyl-amino}-4,5,6,7-tetrahydro-indazol-1-yl)-acetic acid]",7.01
8,"O=C(O)Cn1ncc2c1CCCC2NS(=O)(=O)c1ccc(-c2ccccc2C(F)(F)F)cc1 (stereo not shown) [Example 10-17a, [4-(2′-Trifluoromethyl-biphenyl-4-sulfonylamino)-4,5,6,7-tetrahydro-indazol-1-yl]-acetic acid]",6.58
9,"O=C(O)Cn1ncc2c1CCCC2NS(=O)(=O)c1ccc(-c2ccccc2Cl)cc1 (stereo not shown) [Example 10-4a, [4-(2′-Chloro-biphenyl-4-sulfonylamino)-4,5,6,7-tetrahydro-indazol-1-yl]-acetic acid]",6.59
10,"CN([C@@H]1CCCc2c1cnn2CC(=O)O)S(=O)(=O)c1cnc(Oc2ccc(Cl)cc2)c(C2(C)CC2)c1 [Example 8-1a, ((R)-4-{[6-(4-Chloro-phenoxy)-5-(1-methyl-cyclopropyl)-pyridine-3-sulfonyl]-methyl-amino}-4,5,6,7-tetrahydro-indazol-1-yl)-acetic acid]",7.84
11,"Cc1ccc(Cl)c(Oc2ccc(S(=O)(=O)N(C)[C@@H]3CCCc4c3cnn4CC(=O)O)cc2Cl)c1 [Example 9-18a, ((R)-4-{[3-Chloro-4-(2-chloro-5-methyl-phenoxy)-benzenesulfonyl]-methyl-amino}-4,5,6,7-tetrahydro-indazol-1-yl)-acetic acid]",7.87
12,"Cc1ccc(Oc2ccc(S(=O)(=O)N(C)[C@@H]3CCCc4c3cnn4CC(=O)O)cc2Cl)cc1 [Example 9-15a, {(R)-4-[(3-Chloro-4-p-tolyloxy-benzenesulfonyl)-methyl-amino]-4,5,6,7-tetrahydro-indazol-1-yl}-acetic acid]",7.99

# Second part, the compound after the results:
row,pIC50,Compound
1,7.00,"CS(=O)(=O)c1ccc(Oc2ncc(S(=O)(=O)NC3CCCc4c3cnn4CC(=O)O)cc2Br)cc1 (stereo not shown) [Example 2-5a, {4-[5-Bromo-6-(4-methanesulfonyl-phenoxy)-pyridine-3-sulfonylamino]-4,5,6,7-tetrahydro-indazol-1-yl}-acetic acid]"
2,7.68,"CN([C@@H]1CCCc2c1cnn2CC(=O)O)S(=O)(=O)c1ccc(Oc2ccc(S(C)(=O)=O)cc2)c(Cl)c1 [Example 9-25a, ((R)-4-{[3-Chloro-4-(4-methanesulfonyl-phenoxy)-benzenesulfonyl]-methyl-amino}-4,5,6,7-tetrahydro-indazol-1-yl)-acetic acid]"
3,6.92,"CC(C)Oc1cccc(-c2ccc(S(=O)(=O)NC3CCCc4c3cnn4CC(=O)O)cc2)c1 (stereo not shown) [Example 10-21a, [4-(3′-Isopropoxy-biphenyl-4-sulfonylamino)-4,5,6,7-tetrahydro-indazol-1-yl]-acetic acid]"
4,8.18,"CS(=O)(=O)c1cccc(-c2ccc(S(=O)(=O)N[C@@H]3CCCc4c3cnn4CC(=O)O)cc2)c1 [Example 10-28a, [(R)-4-(3′-Methanesulfonyl-biphenyl-4-sulfonylamino)-4,5,6,7-tetrahydro-indazol-1-yl]-acetic acid]"
5,7.92,"CN([C@@H]1CCCc2c1cnn2CC(=O)O)S(=O)(=O)c1cnc(Oc2cccc(Cl)c2)c(Br)c1 [Example 6-8a, ((R)-4-{[5-Bromo-6-(3-chloro-phenoxy)-pyridine-3-sulfonyl]-methyl-amino}-4,5,6,7-tetrahydro-indazol-1-yl)-acetic acid]"
6,8.06,"CC(C)c1ccc(Oc2ncc(S(=O)(=O)N(C)[C@@H]3CCCc4c3cnn4CC(=O)O)cc2Br)cc1 [Example 6-11a, ((R)-4-{[5-Bromo-6-(4-isopropyl-phenoxy)-pyridine-3-sulfonyl]-methyl-amino}-4,5,6,7-tetrahydro-indazol-1-yl)-acetic acid]"
7,6.80,"O=C(O)Cn1ncc2c1CCCC2NS(=O)(=O)c1ccc(Oc2ccc(F)cc2)nc1 (stereo not shown) [Example 4-1a, {4-[6-(4-Fluoro-phenoxy)-pyridine-3-sulfonylamino]-4,5,6,7-tetrahydro-indazol-1-yl}-acetic acid]"
8,6.67,"COc1ccc(-c2ccc(S(=O)(=O)NC3CCCc4c3cnn4CC(=O)O)cc2)cc1 (stereo not shown) [Example 10-1a, [4-(4′-Methoxy-biphenyl-4-sulfonylamino)-4,5,6,7-tetrahydro-indazol-1-yl]-acetic acid]"
9,8.10,"CN([C@@H]1CCCc2c1cnn2CC(=O)O)S(=O)(=O)c1ccc(Oc2ccc(F)cc2)c(Br)c1 [Example 9-40a, ((R)-4-{[3-Bromo-4-(4-fluoro-phenoxy)-benzenesulfonyl]-methyl-amino}-4,5,6,7-tetrahydro-indazol-1-yl)-acetic acid]"
10,6.71,"O=C(O)Cn1ncc2c1CCCC2NS(=O)(=O)c1cnc(Oc2ccc(F)c(F)c2)c(Br)c1 (stereo not shown) [Example 2-10a, {4-[5-Bromo-6-(3,4-difluoro-phenoxy)-pyridine-3-sulfonylamino]-4,5,6,7-tetrahydro-indazol-1-yl}-acetic acid]"
11,6.71,"CCOc1ccc(-c2ccc(S(=O)(=O)NC3CCCc4c3cnn4CC(=O)O)cc2)cc1 (stereo not shown) [Example 10-3a, [4-(4′-Ethoxy-biphenyl-4-sulfonylamino)-4,5,6,7-tetrahydro-indazol-1-yl]-acetic acid]"
12,8.31,"CN([C@@H]1CCCc2c1cnn2CC(=O)O)S(=O)(=O)c1cnc(Oc2cc(Cl)ccc2Cl)c(Br)c1 [Example 6-5a, ((R)-4-{[5-Bromo-6-(2,5-dichloro-phenoxy)-pyridine-3-sulfonyl]-methyl-amino}-4,5,6,7-tetrahydro-indazol-1-yl)-acetic acid]"
13,8.16,"O=C(O)Cn1ncc2c1CCC[C@H]2NS(=O)(=O)c1ccc(Oc2ccccc2Cl)cc1Cl [Example 5-5a, {(R)-4-[2-Chloro-4-(2-chloro-phenoxy)-benzenesulfonylamino]-4,5,6,7-tetrahydro-indazol-1-yl}-acetic acid]"
